Publication PMC7217877, “N-AS-triggered SPMs are direct regulators of microglia in a model of Alzheimer’s disease” (Nature Communications, 2020)
Substitutions are numbered along the chain they refer to. Several values for one entry are separate records, joined by “and”; a condition that tells them apart may be missing. Equal entries are not always repeated.

Assays:
Assay in all cases: filter binding assay of [14C] N-AS to COX2
COX2 N181A = target: T1, COX2 N181A (Homo sapiens, UniProt P35354, N181A); settings: replicates
T1 construct: His (N); made in house
T1 sequence (P35354 18-604 N181A): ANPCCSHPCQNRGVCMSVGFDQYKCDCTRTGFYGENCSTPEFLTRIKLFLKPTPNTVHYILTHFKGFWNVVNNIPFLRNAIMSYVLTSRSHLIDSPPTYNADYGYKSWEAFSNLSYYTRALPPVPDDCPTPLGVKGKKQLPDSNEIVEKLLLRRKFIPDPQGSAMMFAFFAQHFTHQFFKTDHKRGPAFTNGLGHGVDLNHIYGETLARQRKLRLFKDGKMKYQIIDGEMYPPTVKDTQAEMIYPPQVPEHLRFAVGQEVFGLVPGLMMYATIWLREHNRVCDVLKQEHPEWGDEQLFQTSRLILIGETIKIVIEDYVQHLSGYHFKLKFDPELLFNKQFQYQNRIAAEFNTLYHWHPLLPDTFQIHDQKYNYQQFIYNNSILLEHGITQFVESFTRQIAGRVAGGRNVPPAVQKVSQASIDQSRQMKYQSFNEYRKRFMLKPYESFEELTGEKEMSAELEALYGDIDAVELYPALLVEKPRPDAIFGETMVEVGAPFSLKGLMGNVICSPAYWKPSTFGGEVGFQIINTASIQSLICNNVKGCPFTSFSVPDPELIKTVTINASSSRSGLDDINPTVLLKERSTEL
Text: (§1) Single point mutations in SphK1 (R56A, R57A, R24A, R185A, D178A, and F192A) and COX2 (S565A, N181A, T564A, and S567A) were generated using the In-Fusion Cloning Kits (Clontech) and ORF cDNA expression plasmids of human SphK1 and COX2 gene (Sino Biological Inc, HG15679-NH and HG12036-NH), according to the manufacturer’s instructions. The forward and reverse primers described in Supplementary Table 4. The SphK1 WT, SphK1 mutants, COX2 WT, and COX2 mutant plasmids were transformed in the One shot TOP 10 competent cell (Invitrogen). The bacteria were grown in Luria-Bertani (LB, Invitrogen) plates supplemented with 50 μg ml^−1 kanamycin (Sigma-Aldrich) at 37 °C. The bacterial cell pellets were resuspended in lysis buffer containing 20 mM sodium phosphate (GE Healthcare), 500 mM NaCl (GE Healthcare), 20 mM imidazole (pH 7.4) (GE Healthcare), 0.2 mg ml^−1 lysozyme (Sigma-Aldrich), 20 μg ml^−1 DNase I (Roche), 1 mM MgCl2 (Sigma-Aldrich), and 1 mM PMSF (Sigma-Aldrich) before being lysed by sonication and clarified by centrifugation at 15,493×g for 10 min. Proteins were purified from the soluble fraction using His-Spin Trap columns (GE Healthcare) and the binding and acetylation assays were performed.
(§2) Briefly, SphK1 WT and mutant enzymes (1 mU) were resuspended in 100 μl reaction buffer (20 mM HEPES; pH 7.4, 50 mM NaCl, 10 mM MgCl2, 1 mM EGTA, 0.02% Triton-X100, and 100 μM sphingosine, all from Sigma-Aldrich). […] Briefly, COX2 WT and mutant enzymes (1 mU) were resuspended in 100 μl reaction buffer (20 mM HEPES; pH 7.4, 50 mM NaCl, 10 mM MgCl2, 1 mM EGTA, and 0.02% Triton-X100, all from Sigma-Aldrich). Reactions were initiated by adding [^14C] N-AS (1–200 μM (0.1–20 μCi), ARC UK Ltd, ARC-1024) and incubated at 37 °C for 1 h. The reactions were terminated by adding 100 μl of ice-cold reaction buffer containing 5 mM cold N-AS and immediately filtered through P30 filtermat (Perkin-Elmer), followed by five washes.
(§3) The binding velocity was plotted and the Kcat and KM values were calculated from the Michaelis-Menten analysis using the Sigma-plot program (ver 10.0, Systat software Inc.).

COX2 S567A = target: T2, COX2 S567A (Homo sapiens, UniProt P35354, S567A); settings: replicates
T2 construct: His (N); made in house
T2 sequence (P35354 18-604 S567A): T1 sequence (P35354 18-604 N181A) with A164N, S550A
Text: as §1, §2, §3

COX2 WT = target: T3, COX2 WT (Homo sapiens, UniProt P35354); settings: COX2 Control, replicates
T3 construct: His (N); made in house
T3 sequence (P35354 18-604): T1 sequence (P35354 18-604 N181A) with A164N
Text: as §1, §2, §3

For `CCCCCCCCCCCCC/C=C/[C@@H](O)[C@H](CO)NC(C)=O` [N-AS, N-((2S,3R,E)-1,3-Dihydroxyoctadec-4-en-2-yl)acetamide], the “binding velocity (Vbinding)” value (COX2 N181A; 1 uM) was 0.642 nM/min and 0.892 nM/min and 0.879 nM/min, the “binding velocity (Vbinding)” value (COX2 N181A; 5 uM) was 7.037 nM/min and 14.518 nM/min and 5.980 nM/min and the “binding velocity (Vbinding)” value (COX2 N181A; 10 uM) was 11.465 nM/min and 12.134 nM/min and 6.758 nM/min. The “binding velocity (Vbinding)” value (COX2 N181A; 20 uM) was 15.248 nM/min and 14.109 nM/min and 13.356 nM/min, the “binding velocity (Vbinding)” value (COX2 N181A; 100 uM) was 24.771 nM/min and 29.019 nM/min and 25.078 nM/min and the “binding velocity (Vbinding)” value (COX2 N181A; 200 uM) was 41.872 nM/min and 40.849 nM/min and 37.213 nM/min. For the same compound, the “binding velocity (Vbinding)” value (COX2 S567A; 0.2 uM) was 0.844 nM/min and 0.872 nM/min and 0.519 nM/min, the “binding velocity (Vbinding)” value (COX2 S567A; 1 uM) was 1.046 nM/min and the “binding velocity (Vbinding)” value (COX2 WT; 1 uM (100 pmol)) was 0.888 nM/min and 1.293 nM/min and 0.920 nM/min. For the same compound, the “binding velocity (Vbinding)” value (COX2 WT; 5 uM (500 pmol)) was 5.664 nM/min and 7.362 nM/min and 11.711 nM/min, the “binding velocity (Vbinding)” value (COX2 WT; 10 uM (1000 pmol)) was 14.955 nM/min and 10.446 nM/min and 14.278 nM/min and the “binding velocity (Vbinding)” value (COX2 WT; 20 uM (2000 pmol)) was 30.848 nM/min and 29.462 nM/min and 25.197 nM/min. The “binding velocity (Vbinding)” value (COX2 WT; 100 uM (10000 pmol)) was 52.281 nM/min and 47.667 nM/min and 52.002 nM/min and the “binding velocity (Vbinding)” value (COX2 WT; 200 uM (20000 pmol)) was 58.338 nM/min and 57.809 nM/min and 65.044 nM/min.
